Experimental data as given in the supplement of paper PMC10307832.

Experiments:
Assay in all cases: relative viability (nuclei count vs DMSO), 5 days (fraction); higher = more cells survive
Venetoclax + Phenformin = compound: CC1(C)CCC(CN2CCN(c3ccc(C(=O)NS(=O)(=O)c4ccc(NCC5CCOCC5)c([N+](=O)[O-])c4)c(Oc4cnc5[nH]ccc5c4)c3)CC2)=C(c2ccc(Cl)cc2)C1 [Venetoclax] + N=C(N)NC(=N)NCCc1ccccc1 [Phenformin] (partner 250 µM)
Method in brief: (§1)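 Relative viability divides the nuclei count in treated wells by that in vehicle wells. Lung cancer cell lines were seeded in 1536-well plates, dosed by pin tool the next day, and fixed and stained after 5 days in one step with final 0.05% Triton X-100, 1% formaldehyde and 1 ug/ml Hoechst. Dosing was a single drug or a fixed anchor-drug dose plus five library-drug doses (not always all listed) in √10 steps, and values are medians of duplicate plates imaged at 4×.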

Venetoclax + Luminespib = compound: CC1(C)CCC(CN2CCN(c3ccc(C(=O)NS(=O)(=O)c4ccc(NCC5CCOCC5)c([N+](=O)[O-])c4)c(Oc4cnc5[nH]ccc5c4)c3)CC2)=C(c2ccc(Cl)cc2)C1 [Venetoclax] + CCNC(=O)c1noc(-c2cc(C(C)C)c(O)cc2O)c1-c1ccc(CN2CCOCC2)cc1 [Luminespib] (partner 0.01 µM)
Method in brief: as §1

Venetoclax + Decitabine = compound: CC1(C)CCC(CN2CCN(c3ccc(C(=O)NS(=O)(=O)c4ccc(NCC5CCOCC5)c([N+](=O)[O-])c4)c(Oc4cnc5[nH]ccc5c4)c3)CC2)=C(c2ccc(Cl)cc2)C1 [Venetoclax] + Nc1ncn([C@H]2C[C@H](O)[C@@H](CO)O2)c(=O)n1 [Decitabine] (partner 2 µM)
Method in brief: as §1

Selumetinib + Linsitinib = compound: Cn1cnc2c(F)c(Nc3ccc(Br)cc3Cl)c(C(=O)NOCCO)cc21 [Selumetinib] + C[C@]1(O)C[C@@H](c2nc(-c3ccc4ccc(-c5ccccc5)nc4c3)c3c(N)nccn32)C1 [Linsitinib] (partner 1 µM)
Method in brief: as §1

Cell Line	relative viability (Venetoclax + Phenformin; first compound 0.01 µM)	relative viability (Venetoclax + Phenformin; first compound 0.03162 µM)	relative viability (Venetoclax + Phenformin; first compound 0.1 µM)	relative viability (Venetoclax + Phenformin; first compound 0.3162 µM)	relative viability (Venetoclax + Phenformin; first compound 1 µM)	relative viability (Venetoclax + Luminespib; first compound 0.01 µM)	relative viability (Venetoclax + Luminespib; first compound 0.03162 µM)	relative viability (Venetoclax + Luminespib; first compound 0.1 µM)	relative viability (Venetoclax + Luminespib; first compound 0.3162 µM)	relative viability (Venetoclax + Luminespib; first compound 1 µM)	relative viability (Venetoclax + Decitabine; first compound 0.01 µM)	relative viability (Venetoclax + Decitabine; first compound 0.03162 µM)	relative viability (Venetoclax + Decitabine; first compound 0.1 µM)	relative viability (Venetoclax + Decitabine; first compound 0.3162 µM)	relative viability (Venetoclax + Decitabine; first compound 1 µM)	relative viability (Selumetinib + Linsitinib; first compound 0.02 µM)	relative viability (Selumetinib + Linsitinib; first compound 0.06325 µM)	relative viability (Selumetinib + Linsitinib; first compound 0.2 µM)	relative viability (Selumetinib + Linsitinib; first compound 0.6325 µM)
NCI-H2342	0.763	0.531	0.601	0.568	0.563	0.807	0.737	0.635	0.765	0.719	0.777	0.735	0.713	0.764	0.693				
SK-MES-1	0.616	0.685	0.69	0.601	0.511	0.82	0.789	0.806	0.822	0.728	0.305	0.428	0.367	0.404	0.391	1.03	1.03	0.814	0.775
LCLC-97TM1	0.463	0.494	0.461	0.449	0.385	0.709	0.397	0.717	0.727	0.771	0.242	0.236	0.238	0.204	0.222	0.227	0.193	0.207	0.2
HCC-44	0.362	0.153	0.165	0.161	0.182	1.05	0.946	1.13	1.07	1	0.938	0.919	0.87	0.892	0.949	0.701	0.639	0.539	0.575
201T	0.451	0.433	0.456	0.466	0.411	1.01	1.08	1.04	0.996	1.05	0.774	0.834	0.792	0.82	0.825	0.987	0.978	0.949	0.932
HOP-62	0.622	0.655	0.67	0.649	0.64	0.945	0.892	0.926	0.8	0.842	0.182	0.203	0.199	0.216	0.218	0.98	1.05	0.93	0.469
NCI-H661	0.298	0.278	0.291	0.28	0.262	0.924	0.956	0.894	0.822	0.871	0.561	0.528	0.547	0.532	0.529	0.614	0.455	0.469	0.457
NCI-H2087	0.461	0.471	0.387	0.407	0.461	0.154	0.138	0.175	0.18	0.135	0.316	0.335	0.267	0.23	0.29	0.817	0.647	0.595	0.374
NCI-H647	0.543	0.622	0.443	0.481	0.377	0.167	0.206	0.124	0.123	0.151	0.379	0.562	0.461	0.424	0.332	1.28	1.06	0.827	0.803
SW 1573	0.425	0.373	0.327	0.47	0.392	0.234	0.152	0.153	0.385	0.215	0.526	0.553	0.572	0.475	0.437	0.779	0.642	0.683	0.596
A-427	0.292	0.322	0.31	0.348	0.259	0.903	0.847	0.889	1.07	0.891	0.54	0.546	0.55	0.54	0.559	1.16	1.09	1.02	0.925
NCI-H520	0.477	0.507	0.554	0.566	0.519	0.258	0.209	0.221	0.209	0.187	0.526	0.506		0.557	0.458	1.08	0.944	1.09	1.07
NCI-H1755	0.645	0.616	0.573	0.629	0.555	0.534	0.452	0.556	0.348	0.55	0.737	0.754	0.714	0.739	0.713	0.95	0.852	0.845	0.848
NCI-H1975	0.429	0.397	0.401	0.41	0.366	0.241	0.212	0.191	0.172	0.251	0.358	0.371	0.414	0.393	0.43	1	0.886	0.892	0.623
Calu-6																1.03	0.77	0.522	0.362
